Reference: ChEMBL document CHEMBL4007502, “Cytotoxic dammarane-type triterpenoids from the leaves of Viburnum sambucinum” (Bioorg Med Chem Lett, 2017)
pIC50: −log10 of the molar value.

Assays:
Type in all cases: functional, cell-based
KB = test: Cytotoxicity against human KB cells assessed as growth inhibition after 72 hrs by neutral red assay
Lu1 = test: Cytotoxicity against human Lu1 cells assessed as growth inhibition after 72 hrs by neutral red assay; conditions: Lu1, 72 h
HepG2 = test: Cytotoxicity against human HepG2 cells assessed as growth inhibition after 72 hrs by neutral red assay; conditions: HepG2, 72 h
MCF7 = test: Cytotoxicity against human MCF7 cells assessed as growth inhibition after 72 hrs by neutral red assay; conditions: MCF7, 72 h

Row | SMILES | pIC50 (KB) | pIC50 (Lu1) | pIC50 (HepG2) | pIC50 (MCF7)
1 | CO[C@@H]1CC(=O)[C@]2(C)[C@@H]1[C@H](O)C[C@@H]1[C@@]3(C)CC[C@H](O)C(C)(C)[C@@H]3CC[C@]12C | 4.11 | 4.09 | 4.09 | 4.10
2 | CC1(C)[C@@H](O)CC[C@]2(C)[C@H]3C[C@@H](O)[C@@H]4C=CC(=O)[C@@]4(C)[C@]3(C)CC[C@@H]12 | 5.28 | 5.28 | 5.29 | 5.30
3 | C/C(=C\CO)CCCC(C)CCCC(C)CCCC(C)C (stereo not drawn) | < 4.00 | < 4.00 | < 4.00 | < 4.00
4 | C/C(=C\CC[C@](C)(O)[C@H]1CC[C@]2(C)[C@@H]1CC[C@@H]1[C@@]3(C)CCC(=O)C(C)(C)[C@@H]3CC[C@]12C)C(=O)O | < 4.00 | < 4.00 | < 4.00 | < 4.00
5 | CC1(C)[C@@H](O)CC[C@]2(C)[C@H]3C[C@@H](O)[C@@H]4[C@H](O)CC(=O)[C@@]4(C)[C@]3(C)CC[C@@H]12 | < 4.00 | < 4.00 | < 4.00 | < 4.00
6 | CC1(C)C(=O)CC[C@]2(C)[C@H]3C[C@@H](O)[C@@H]4C=CC(=O)[C@@]4(C)[C@]3(C)CC[C@@H]12 | 5.30 | 5.29 | 5.28 | 5.33
7 | C=C(C)[C@@H]1CC[C@@]2(C)[C@H]1[C@H]1CC[C@@H]3[C@@]4(C)CCC(=O)C(C)(C)[C@@H]4CC[C@@]3(C)[C@]1(C)C[C@@H]2O | 4.52 | 4.21 | 4.30 | 4.32
8 | C/C(=C\CC[C@](C)(O)[C@@H]1[C@H]2CC[C@@H]3[C@@]4(C)CCC(=O)C(C)(C)[C@@H]4CC[C@@]3(C)[C@]2(C)C[C@@H]1O)C(=O)O | < 4.00 | < 4.00 | < 4.00 | < 4.00
9 | CC1(C)C(=O)CC[C@]2(C)[C@H]3C[C@@H](O)[C@@H]4[C@H](O)CC(=O)[C@@]4(C)[C@]3(C)CC[C@@H]12 | < 4.00 | 5.24 | 5.24 | 5.37
10 | C[C@H]1[C@H](C)CC[C@]2(C)CC[C@]3(C)C(=CC[C@@H]4[C@@]5(C)CC[C@H](O)C(C)(C)[C@@H]5CC[C@]43C)[C@H]12 | < 4.00 | < 4.00 | < 4.00 | < 4.00
11 | COc1c(-c2ccc(O)cc2)oc2cc(O)cc(O)c2c1=O [ISOKAEMPFERIDE] | 4.19 | 4.22 | 4.20 | 4.26
12 | O=c1cc(-c2ccc(O)c(O)c2)oc2cc(O)cc(O)c12 [LUTEOLIN] | 4.34 | 4.39 | 4.33 | 4.35
13 | CC1(C)CC[C@]2(C(=O)O)CC[C@]3(C)C(=CC[C@@H]4[C@@]5(C)C[C@@H](O)[C@H](O)C(C)(C)[C@@H]5CC[C@]43C)[C@@H]2C1 [MASLINIC ACID] | < 4.00 | < 4.00 | < 4.00 | < 4.00
14 | CC1(C)CC[C@]2(C(=O)O)CC[C@]3(C)C(=CC[C@@H]4[C@@]5(C)CC[C@H](O)C(C)(C)[C@@H]5CC[C@]43C)[C@@H]2C1 [OLEANOLIC_ACID] | < 4.00 | < 4.00 | < 4.00 | < 4.00
15 | C[C@H]1[C@H](C)CC[C@]2(C(=O)O)CC[C@]3(C)C(=CC[C@@H]4[C@@]5(C)CC[C@H](O)C(C)(C)[C@@H]5CC[C@]43C)[C@H]12 [URSOLIC ACID] |  | 4.94 | 4.40 | 5.03
16 | C[C@H]1[C@H](C)CC[C@]2(CO)CC[C@]3(C)C(=CC[C@@H]4[C@@]5(C)CC[C@H](O)C(C)(C)[C@@H]5CC[C@]43C)[C@H]12 [UVAOL] | 4.42 | 4.27 | 4.27 | 4.24
